Test system: phospho-Tau (S202,T205) in SH-SY5Y neuroblastoma cells
Experiment: Okadaic acid-induced p-Tau accumulation in SH-SY5Y cells, co-incubation (AT8 immunoblot)
Format: cell-based
Details: 100 nM OA alone, 3 h
Method: Reproducible hyperphosphorylated p-Tau accumulation can be induced in the SH-SY5Y neuroblastoma cell line following incubation with Okadaic Acid (OA), a small molecule inhibitor of protein phosphatase 2A (PP2A), according to the method described by Boban et al., J Neurosci Methods., S0165-0270(18)30297-8 (2018). In this experiment, SH-SY5Y cells were incubated with 100 nM OA alone or in combination with 2,4-DSPBN+NAC for three hours prior to harvesting the cells for immunoblot evaluations with the AT8 phospho-Tau (S202,T205) antibody or the housekeeping protein, GAPDH. […] Two doses of combinatorial 2,4-DSPBN+NAC (185 μM 2,4-DSPBN/500 μM NAC or 93 μM 2,4-DSPBN/250 μM NAC) were used in this experiment, each of which used a molar ratio that mimics the equal mass:mass ratios used in the in vivo studies (i.e. a 1:1 mass ratio of 2,4-DSPBN and NAC is equivalent to a 1:2.7 molar ratio).
Biological and technical replicates of the experiment described in FIG. 3 were conducted, and p-Tau(S202,T205) immunoblots (AT8 antibody) were subjected to densitometric evaluations of relative protein levels, using National Institutes of Health ImageJ software and the internal GAPDH protein standard. […]

Compound: C=C1[C@@H](O)[C@@H]2O[C@]3(CC[C@H](/C=C/[C@@H](C)[C@@H]4CC(C)=C[C@@]5(O[C@H](C[C@@](C)(O)C(=O)O)CC[C@H]5O)O4)O3)CC[C@H]2O[C@@H]1[C@@H](O)C[C@H](C)[C@H]1O[C@@]2(CCCCO2)CC[C@H]1C [OA, Okadaic Acid]
- phospho-Tau(S202,T205) level relative to untreated control cells (immunoblot, FIG. 3): marked phospho-Tau(S202,T205) accumulation

From patent US20210137861A1, “METHODS FOR REDUCING ACCUMULATED PATHOLOGIC TAU PROTEIN” (HOUGH EAR INSTITUTE, priority 2018, published 2021)
